Results reported in US11708344B2, “Flavone derivatives for the treatment and prophylaxis of hepatitis B virus disease” (Hoffmann-La Roche Inc., priority 2018, dated 2023).

Legend:
[1] = Human microsome stability assay; format: in vitro ADME; settings: human liver microsomes, 1 μM test compound, 0.5 mg/mL microsomal protein, 37° C., pH 7.4, 0-30 minutes
Procedure, shortened: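 Parent compound remaining was measured by LC-MS/MS at 0, 3, 6, 9, 15 and 30 min, following ACN quench. Reactions held 1 μM compound and 0.5 mg/mL human liver microsomal protein in pH 7.4 phosphate buffer at 37 °C, started by NADPH regeneration (1 mM NADP, 1 mM MgCl2); controls lacked NADPH.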

[2] = tested on: HBsAg in HBV-infected PHH; assay: Cryopreserved primary human hepatocytes (PHH) HBV infection assay, extracellular HBsAg (CLIA); format: cell-based; settings: Hepatitis B virus, Hepatocyte, 216 h, read-out: HBsAg IC50, Cryopreserved PHH infected with HBV, 9 days post-compound treatment, extracellular HBsAg
Procedure, shortened: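 Cryopreserved PHH were infected with 5.8×10^6 HBV genome equivalents in medium with 4% PEG8000 and 1% DMSO. After 9 days of treatment, extracellular HBsAg was measured by CLIA, and IC50 was derived from a 4-parameter logistic fit.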

[3] = tested on: HBeAg (surrogate marker for cccDNA) in HepDES19 cells; assay: Engineered HepDES19 primary screen assay (HBeAg ELISA); format: cell-based, HBV; settings: Hepatitis B virus, HepDES19, 120 h, read-out: IC50 (HBeAg level, HepDES19 primary screen assay), HepDES19 cells, 5 days compound incubation, HBeAg ELISA
Procedure, shortened: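 IC50 values come from 4-parameter logistic fits of HBeAg ELISA signal, the cccDNA surrogate, with CCK-8 run in parallel for viability. Compounds at half-log dilutions with 1% DMSO were applied for 5 days at 37 °C to HepDES19 cells previously cultured 8 days without Tet.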

SMILES	Clearance of Human microsome [1]	IC50 [2]	IC50 [3]
Cc1ccc(-c2cc(=O)c3cccc(Cl)c3o2)c(OCCO[C@H]2C[C@@H](C(=O)O)C2)c1 [Example C038-A, Cis-3-[2-[2-(8-chloro-4-oxo-chromen-2-yl)-5-methyl-phenoxy]ethoxy]cyclobutanecarboxylic acid]	6.15 mL/min/kg	8610 nM	643 nM
O=c1cc(-c2cc(F)c(Br)cc2OCCO[C@H]2C[C@@H](C(=O)O)C2)oc2c(Cl)cccc12 [Example C044-A, Cis-3-[2-[5-bromo-2-(8-chloro-4-oxo-chromen-2-yl)-4-fluoro-phenoxy]ethoxy]cyclobutanecarboxylic acid]	6.15 mL/min/kg	9580 nM	2010 nM
Cc1cc(-c2cc(=O)c3cccc(Cl)c3o2)c(OCCC(=O)O)cc1C(F)(F)F [Example A044, 3-[2-(8-chloro-4-oxo-chromen-2-yl)-4-methyl-5-(trifluoromethyl)phenoxy]propanoic acid]	6.15 mL/min/kg	1770 nM	2520 nM
Cc1cc(-c2cc(=O)c3cccc(Cl)c3o2)c(OCCCOCC(=O)O)cc1Cl [Example C019, 2-[3-[5-chloro-2-(8-chloro-4-oxo-chromen-2-yl)-4-methyl-phenoxy]propoxy]acetic acid]	6.71 mL/min/kg	3000 nM	185 nM
CC(CC(=O)O)OC(=O)CC(C)Oc1cc(C(F)(F)F)ccc1-c1cc(=O)c2cccc(Cl)c2o1 (stereo not drawn) [Example A040, 3-[3-[2-(8-chloro-4-oxo-chromen-2-yl)-5-(trifluoromethyl)phenoxy]butanoyloxy]butanoic acid]	6.15 mL/min/kg	7940 nM	525 nM
O=c1cc(-c2ccccc2OCCO[C@H]2C[C@H](C(=O)O)C2)oc2c(Cl)cccc12 [Example C025-B, Trans-3-[2-[2-(8-chloro-4-oxo-chromen-2-yl)phenoxy]ethoxy]cyclobutanecarboxylic acid]	6.15 mL/min/kg	2020 nM	205 nM
Cc1ccc(-c2cc(=O)c3c(O)ccc(Cl)c3o2)c(O[C@H]2C[C@@H](C(=O)O)C2)c1 [Example B037-A, Cis-3-[2-(8-chloro-5-hydroxy-4-oxo-chromen-2-yl)-5-methyl-phenoxy]cyclobutanecarboxylic acid]	9.86 mL/min/kg	2040 nM	4430 nM
COc1ccc(-c2cc(=O)c3cccc(Cl)c3o2)c(O[C@H]2C[C@@H](C(=O)O)C2)c1 [Example B011-A, Cis-3-[2-(8-chloro-4-oxo-chromen-2-yl)-5-methoxy-phenoxy]cyclobutanecarboxylic acid]	8.35 mL/min/kg	2320 nM	851 nM
O=C(O)COCCCOc1cc2c(cc1-c1cc(=O)c3cccc(Cl)c3o1)OCO2 [Example C015, 2-[3-[[6-(8-chloro-4-oxo-chromen-2-yl)-1,3-benzodioxo1-5-yl]oxy]propoxy]acetic acid]	6.15 mL/min/kg	3360 nM	7870 nM
O=c1cc(-c2cc3c(cc2OCCO[C@H]2C[C@@H](C(=O)O)C2)OCO3)oc2c(Cl)cccc12 [Example C043-A, Cis-3-[2-[[6-(8-chloro-4-oxo-chromen-2-yl)-1,3-benzodioxo1-5-yl]oxy]ethoxy]cyclobutanecarboxylic acid]	6.15 mL/min/kg	8670 nM	2680 nM
COc1cc(OCCCC(=O)O)c(-c2cc(=O)c3cccc(Cl)c3o2)cc1OC [Example A056, 4-[2-(8-chloro-4-oxo-chromen-2-yl)-4,5-dimethoxy-phenoxy]butanoic acid]	6.15 mL/min/kg	9210 nM	3110 nM
COc1cc(-c2cc(=O)c3cccc(Cl)c3o2)c(OCCC(=O)O)cc1Br [Example A007, 3-[5-bromo-2-(8-chloro-4-oxo-chromen-2-yl)-4-methoxy-phenoxy]propanoic acid]	6.15 mL/min/kg	2730 nM	3150 nM
Cc1ccc(-c2cc(=O)c3cccc(Cl)c3o2)c(O[C@H]2C[C@H](C(=O)NS(=O)(=O)C3CC3)C2)c1 [Example B052-B, Trans-3-[2-(8-chloro-4-oxo-chromen-2-yl)-5-methyl-phenoxy]-N-cyclopropylsulfonyl-cyclobutanecarboxamide]	6.15 mL/min/kg	7980 nM	16300 nM
CCNS(=O)(=O)N[C@@H](COc1cc(C(F)(F)F)ccc1-c1cc(=O)c2cccc(Cl)c2o1)C(=O)O [Example A099, (2S)-3-[2-(8-chloro-4-oxo-chromen-2-yl)-5-(trifluoromethyl)phenoxy]-2-(ethylsulfamoylamino)propanoic acid]	9.53 mL/min/kg	140 nM	66.3 nM
COc1cc(-c2cc(=O)c3cccc(Cl)c3o2)c(OCCO[C@H]2C[C@@H](C(=O)O)C2)cc1OCC(F)(F)F [Example C080, Cis-3-[2-[2-(8-chloro-4-oxo-chromen-2-yl)-4-methoxy-5-(2,2,2-trifluoroethoxy)phenoxy]ethoxy]cyclobutanecarboxylic acid]	6.15 mL/min/kg	3510 nM	4000 nM
O=C(O)COCCCOc1cc(OC(F)(F)F)ccc1-c1cc(=O)c2cccc(Cl)c2o1 [Example C014, 2-[3-[2-(8-chloro-4-oxo-chromen-2-yl)-5-(trifluoromethoxy)phenoxy]propoxy]acetic acid]	8.04 mL/min/kg	7800 nM	2190 nM
O=c1cc(-c2ccc(C3CC3)cc2O[C@H]2C[C@@H](C(=O)O)C2)oc2c(Cl)cccc12 [Example B035-A, cis-3-[2-(8-chloro-4-oxo-chromen-2-yl)-5-cyclopropyl-phenoxy]cyclobutanecarboxylic acid]	8.46 mL/min/kg	1460 nM	160 nM
Cc1ccc(-c2cc(=O)c3cccc(Cl)c3o2)c(OCCCOCC(=O)O)c1 [Example C002, 2-[3-[2-(8-chloro-4-oxo-chromen-2-yl)-5-methyl-phenoxy]propoxy]acetic acid]	6.15 mL/min/kg	2430 nM	348 nM
O=C(O)C(O)COc1cc(C(F)(F)F)ccc1-c1cc(=O)c2cccc(Cl)c2o1 (stereo not drawn) [Example B073, 3-[2-(8-chloro-4-oxo-chromen-2-yl)-5-(trifluoromethyl)phenoxy]-2-hydroxy-propanoic acid]	6.15 mL/min/kg	5970 nM	1040 nM
COc1cc(-c2cc(=O)c3cccc(Cl)c3o2)c(OCCCOCC(=O)O)cc1Cl [Example C016, 2-[3-[5-chloro-2-(8-chloro-4-oxo-chromen-2-yl)-4-methoxy-phenoxy]propoxy]acetic acid]	6.15 mL/min/kg	7140 nM	2460 nM
Cc1cc(-c2cc(=O)c3cccc(Cl)c3o2)c(OCCC(=O)O)cc1OC(F)(F)F [Example A017, 3-[2-(8-chloro-4-oxo-chromen-2-yl)-4-methyl-5-(trifluoromethoxy)phenoxy]propanoic acid]	9.98 mL/min/kg	1840 nM	3170 nM
COc1cc(OCCC(=O)O)c(-c2cc(=O)c3cccc(Cl)c3o2)cc1OC [Example A010, 3-[2-(8-chloro-4-oxo-chromen-2-yl)-4,5-dimethoxy-phenoxy]propanoic acid]	6.15 mL/min/kg	3000 nM	1400 nM
Cc1cc(-c2cc(=O)c3cccc(Cl)c3o2)c(OCCCOCC(=O)O)cc1Br [Example C011, 2-[3-[5-bromo-2-(8-chloro-4-oxo-chromen-2-yl)-4-methyl-phenoxy]propoxy]acetic acid]	6.15 mL/min/kg	8500 nM	10600 nM
O=C(O)CCOc1cc(Br)ccc1-c1cc(=O)c2cccc(Cl)c2o1 [Example A004, 3-[5-bromo-2-(8-chloro-4-oxo-chromen-2-yl)phenoxy]propanoic acid]	6.15 mL/min/kg	6610 nM	374 nM
O=C(O)C1CC(Oc2cc(OC(F)(F)F)ccc2-c2cc(=O)c3cccc(Cl)c3o2)C1 (stereo not drawn) [Example B005, 3-[2-(8-chloro-4-oxo-chromen-2-yl)-5-(trifluoromethoxy)phenoxy]cyclobutanecarboxylic acid]	6.15 mL/min/kg	6970 nM	219 nM
O=c1cc(-c2ccccc2OCCO[C@H]2C[C@H](C(=O)O)C2)oc2c(Cl)cc(F)cc12 [Example C036-B, Trans-3-[2-[2-(8-chloro-6-fluoro-4-oxo-chromen-2-yl)phenoxy]ethoxy]cyclobutanecarboxylic acid]	6.15 mL/min/kg	5580 nM	770 nM
COc1cc(-c2cc(=O)c3cccc(Cl)c3o2)c(OC2CC(C(=O)O)C2)cc1Br (stereo not drawn) [Example B004, 3-[5-bromo-2-(8-chloro-4-oxo-chromen-2-yl)-4-methoxy-phenoxy]cyclobutanecarboxylic acid]	6.15 mL/min/kg	5520 nM	556 nM
